Source: US10168342B2, “Lipid probes and uses thereof” (THE SCRIPPS RESEARCH INSTITUTE, priority 2015, dated 2019)
Like-named read-outs stand apart in the source and are kept apart here.

Key:
[1] = target: T1, AEA-DA lipid probe targets in Neuro2a cells (Mus musculus, UniProt Q8BJ03); details: protein Cox15, Neuro2a cells
T1 sequence (Q8BJ03 1-413): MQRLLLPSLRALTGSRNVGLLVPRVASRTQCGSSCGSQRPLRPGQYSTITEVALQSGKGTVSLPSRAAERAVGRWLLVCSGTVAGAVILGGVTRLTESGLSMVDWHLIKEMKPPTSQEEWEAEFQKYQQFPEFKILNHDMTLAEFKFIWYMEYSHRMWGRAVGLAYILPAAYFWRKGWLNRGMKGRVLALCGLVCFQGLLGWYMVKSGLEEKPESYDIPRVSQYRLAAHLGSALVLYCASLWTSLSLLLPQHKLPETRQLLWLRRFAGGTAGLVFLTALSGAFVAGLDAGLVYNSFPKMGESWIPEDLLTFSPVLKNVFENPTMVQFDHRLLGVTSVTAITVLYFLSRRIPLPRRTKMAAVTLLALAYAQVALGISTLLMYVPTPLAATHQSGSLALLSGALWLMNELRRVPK

[2] = target: T2, AEA-DA lipid probe targets in Neuro2a cells (Mus musculus, UniProt Q8BHC4); details: for SILAC ratio, DCAKD (Q8BHC4): Neuro2a cells, AEA-DA probe
T2 sequence (Q8BHC4 1-231): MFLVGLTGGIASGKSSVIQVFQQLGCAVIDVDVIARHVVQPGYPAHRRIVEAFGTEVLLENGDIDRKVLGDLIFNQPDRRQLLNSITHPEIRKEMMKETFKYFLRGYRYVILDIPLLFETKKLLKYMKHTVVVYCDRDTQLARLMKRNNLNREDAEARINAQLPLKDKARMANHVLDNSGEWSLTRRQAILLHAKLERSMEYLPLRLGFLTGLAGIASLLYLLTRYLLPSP

[3] = target: T3, AEA-DA lipid probe targets in Neuro2a cells (Mus musculus, UniProt Q8BMK4)
T3 sequence (Q8BMK4 1-575): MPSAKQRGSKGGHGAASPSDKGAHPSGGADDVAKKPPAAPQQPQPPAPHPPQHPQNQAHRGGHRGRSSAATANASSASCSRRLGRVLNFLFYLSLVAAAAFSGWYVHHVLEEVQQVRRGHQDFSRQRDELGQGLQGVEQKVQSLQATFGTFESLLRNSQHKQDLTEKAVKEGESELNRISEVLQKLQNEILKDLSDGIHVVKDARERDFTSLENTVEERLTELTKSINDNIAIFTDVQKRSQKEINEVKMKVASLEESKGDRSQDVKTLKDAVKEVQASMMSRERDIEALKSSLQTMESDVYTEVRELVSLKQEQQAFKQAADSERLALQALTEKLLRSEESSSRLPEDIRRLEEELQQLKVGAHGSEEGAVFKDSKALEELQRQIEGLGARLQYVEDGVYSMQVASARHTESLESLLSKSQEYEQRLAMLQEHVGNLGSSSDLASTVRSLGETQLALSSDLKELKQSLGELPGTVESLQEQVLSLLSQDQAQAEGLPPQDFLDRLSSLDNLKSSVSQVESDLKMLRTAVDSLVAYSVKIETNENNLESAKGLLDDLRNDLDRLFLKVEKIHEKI

[4] = target: AEA-DA lipid probe targets in Neuro2a cells (Mus musculus, UniProt Q6PA06)
[5] = target: AEA-DA lipid probe targets in Neuro2a cells (Mus musculus, UniProt Q9D880)
[6] = target: T4, AEA-DA lipid probe targets in Neuro2a cells (Mus musculus, UniProt Q9EQI8)
T4 sequence (Q9EQI8 1-283): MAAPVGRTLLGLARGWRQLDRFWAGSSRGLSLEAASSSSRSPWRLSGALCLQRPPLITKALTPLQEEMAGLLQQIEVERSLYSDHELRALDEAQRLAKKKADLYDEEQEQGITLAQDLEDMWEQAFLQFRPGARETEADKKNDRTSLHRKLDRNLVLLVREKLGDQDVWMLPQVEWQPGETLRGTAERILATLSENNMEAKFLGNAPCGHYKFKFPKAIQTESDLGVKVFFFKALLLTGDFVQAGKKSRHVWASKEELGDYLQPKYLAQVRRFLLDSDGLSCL

[7] = target: AEA-DA lipid probe targets in Neuro2a cells (Mus musculus, UniProt Q8JZU2)
[8] = target: AEA-DA lipid probe targets in Neuro2a cells (Mus musculus, UniProt Q9DBC7)
[9] = target: T5, AEA-DA lipid probe targets in Neuro2a cells (Mus musculus, UniProt Q6QD59)
T5 sequence (Q6QD59 1-228): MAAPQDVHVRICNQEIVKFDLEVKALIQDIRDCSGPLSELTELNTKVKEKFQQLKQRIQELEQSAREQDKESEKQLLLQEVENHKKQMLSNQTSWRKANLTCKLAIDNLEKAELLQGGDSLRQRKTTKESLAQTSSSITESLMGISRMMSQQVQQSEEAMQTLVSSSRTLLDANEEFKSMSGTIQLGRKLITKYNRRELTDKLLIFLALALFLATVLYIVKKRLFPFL

AEA-DA lipid probe targets in Neuro2a cells (Mus musculus, UniProt Q9D880), sequence (Q9D880 22-353): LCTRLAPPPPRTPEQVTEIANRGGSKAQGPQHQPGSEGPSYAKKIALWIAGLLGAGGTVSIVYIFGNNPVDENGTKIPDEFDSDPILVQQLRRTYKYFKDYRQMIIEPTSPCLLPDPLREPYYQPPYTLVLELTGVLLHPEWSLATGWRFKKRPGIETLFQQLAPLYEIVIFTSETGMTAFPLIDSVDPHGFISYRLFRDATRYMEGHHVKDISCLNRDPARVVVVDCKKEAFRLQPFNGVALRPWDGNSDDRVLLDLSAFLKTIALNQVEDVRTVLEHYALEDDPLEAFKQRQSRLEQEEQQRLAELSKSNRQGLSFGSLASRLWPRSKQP
AEA-DA lipid probe targets in Neuro2a cells (Mus musculus, UniProt Q6PA06), sequence (Q6PA06 whole entry): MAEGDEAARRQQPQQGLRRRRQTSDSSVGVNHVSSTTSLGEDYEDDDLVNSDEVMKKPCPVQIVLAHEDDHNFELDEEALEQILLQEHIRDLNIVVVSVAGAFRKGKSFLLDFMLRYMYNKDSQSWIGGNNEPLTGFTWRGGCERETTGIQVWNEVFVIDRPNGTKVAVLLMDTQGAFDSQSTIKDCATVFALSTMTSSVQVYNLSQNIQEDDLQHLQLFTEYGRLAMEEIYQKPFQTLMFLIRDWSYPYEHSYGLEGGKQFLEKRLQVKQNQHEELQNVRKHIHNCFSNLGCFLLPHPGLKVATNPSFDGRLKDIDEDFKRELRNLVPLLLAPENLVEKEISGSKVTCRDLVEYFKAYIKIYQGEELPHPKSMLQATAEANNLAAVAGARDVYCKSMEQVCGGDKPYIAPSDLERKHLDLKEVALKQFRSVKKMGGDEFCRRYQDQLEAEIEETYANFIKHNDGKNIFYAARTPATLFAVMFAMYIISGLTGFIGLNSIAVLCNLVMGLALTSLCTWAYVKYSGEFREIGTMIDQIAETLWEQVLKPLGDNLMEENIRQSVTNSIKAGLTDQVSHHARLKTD
AEA-DA lipid probe targets in Neuro2a cells (Mus musculus, UniProt Q8JZU2), sequence (Q8JZU2 14-311): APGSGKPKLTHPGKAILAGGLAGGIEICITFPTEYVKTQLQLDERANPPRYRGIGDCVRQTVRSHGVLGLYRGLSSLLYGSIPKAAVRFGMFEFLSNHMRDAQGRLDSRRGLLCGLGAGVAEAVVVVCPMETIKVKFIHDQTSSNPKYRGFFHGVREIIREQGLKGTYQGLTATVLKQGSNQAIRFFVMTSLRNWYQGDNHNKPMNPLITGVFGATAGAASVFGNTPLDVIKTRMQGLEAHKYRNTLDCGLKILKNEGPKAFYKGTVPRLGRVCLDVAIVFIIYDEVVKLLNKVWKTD
AEA-DA lipid probe targets in Neuro2a cells (Mus musculus, UniProt Q9DBC7), sequence (Q9DBC7 whole entry): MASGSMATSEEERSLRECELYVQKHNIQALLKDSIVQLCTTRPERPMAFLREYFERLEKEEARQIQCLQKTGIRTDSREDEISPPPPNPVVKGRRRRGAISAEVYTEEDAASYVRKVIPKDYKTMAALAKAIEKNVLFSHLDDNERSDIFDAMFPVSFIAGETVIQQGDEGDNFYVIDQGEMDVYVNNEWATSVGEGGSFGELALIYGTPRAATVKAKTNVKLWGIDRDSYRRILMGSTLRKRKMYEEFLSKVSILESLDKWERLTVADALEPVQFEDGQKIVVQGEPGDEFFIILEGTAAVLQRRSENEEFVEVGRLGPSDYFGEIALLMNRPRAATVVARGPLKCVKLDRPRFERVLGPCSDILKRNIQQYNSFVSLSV

SMILES: O=C(/C=C/c1cccnc1)NCCCCC1CCN(C(=O)c2ccccc2)CC1 [FK-866, reference compound]
- SILAC ratio (AEA-DA competition) ([1]; competitor 25 μM): 0.9
- SILAC ratio, DCAKD (Q8BHC4) ([2]; competitor 25 μM): 1.1
- SILAC ratio, Dcakd ([2]; competitor 25 μM): 1.1
- SILAC ratio, Ckap4 ([3]; competitor 25 μM): 1.1
- SILAC ratio, Atl2 ([4]; competitor 25 μM): 1.1
- SILAC ratio Timm50 ([5]; competitor 25 μM): 1.1
- SILAC ratio Mrpl46 ([6]; competitor 25 μM): 1.3
- SILAC ratio Slc25a1 ([7]; competitor 25 μM): 1.2
- SILAC ratio, Prkar1a ([8]; competitor 25 μM): 1.5

SMILES: CCCCC/C=C\C/C=C\C/C=C\C/C=C\CCCC(=O)NCCO [AEA, anandamide, reference compound]
- SILAC ratio (AEA-DA competition) ([1]; competitor 200 μM): 1.0
- SILAC ratio, DCAKD (Q8BHC4) ([2]; competitor 200 μM): 1.9
- SILAC ratio, Dcakd ([2]; competitor 200 μM): 1.9
- SILAC ratio, Ckap4 ([3]; competitor 200 μM): 2.0
- SILAC ratio, Atl2 ([4]; competitor 200 μM): 2.0
- SILAC ratio Timm50 ([5]; competitor 200 μM): 1.2
- SILAC ratio Mrpl46 ([6]; competitor 200 μM): 1.3
- SILAC ratio Slc25a1 ([7]; competitor 200 μM): 1.2
- SILAC ratio, Prkar1a ([8]; competitor 200 μM): 1.2
- SILAC ratio, Bnip1 ([9]; competitor 200 μM): 2.1

SMILES: CN1CCN(C(=O)c2c(-c3ccccc3)c3cc([N+](=O)[O-])ccc3n2C)CC1 [KML110, (1-Methyl-5-nitro-3-phenyl-1H-indol-2-yl)(4-methylpiperazin-1-yl)methanone]
- SILAC ratio (AEA-DA competition) ([1]; competitor 25 μM): 1.1
- SILAC ratio, Dcakd ([2]; competitor 25 μM): 1.4
- SILAC ratio, Ckap4 ([3]; competitor 25 μM): 1.4
- SILAC ratio, Atl2 ([4]; competitor 25 μM): 1.3
- SILAC ratio Timm50 ([5]; competitor 25 μM): 1.1
- SILAC ratio Mrpl46 ([6]; competitor 25 μM): 1.3
- SILAC ratio Slc25a1 ([7]; competitor 25 μM): 1.2
- SILAC ratio, Prkar1a ([8]; competitor 25 μM): 1.6
- SILAC ratio, Bnip1 ([9]; competitor 25 μM): 1.3

SMILES: C=CCN(C)CCCCCCOc1ccc(C(=O)c2ccc(Br)cc2)c(F)c1 [Ro 48-8071, reference compound]
- SILAC ratio (AEA-DA competition) ([1]; competitor 25 μM): 0.8
- SILAC ratio, DCAKD (Q8BHC4) ([2]; competitor 25 μM): 1.0
- SILAC ratio, Dcakd ([2]; competitor 25 μM): 1.0
- SILAC ratio, Ckap4 ([3]; competitor 25 μM): 1.1
- SILAC ratio, Atl2 ([4]; competitor 25 μM): 1.2
- SILAC ratio Timm50 ([5]; competitor 25 μM): 0.9
- SILAC ratio Mrpl46 ([6]; competitor 25 μM): 0.9
- SILAC ratio Slc25a1 ([7]; competitor 25 μM): 1.0
- SILAC ratio, Prkar1a ([8]; competitor 25 μM): 1.0
- SILAC ratio, Bnip1 ([9]; competitor 25 μM): 1.0

SMILES: CN1CCN(C(=O)c2[nH]c3ccc([N+](=O)[O-])cc3c2-c2ccccc2)CC1 [MJN228, (4-Methylpiperazin-1-yl)(5-nitro-3-phenyl-1H-indol-2-yl)methanone]
- SILAC ratio (AEA-DA competition) ([1]; competitor 10 μM): 0.8
- SILAC ratio (AEA-DA competition) ([1]; competitor 25 μM): 1.0
- SILAC ratio (AEA-DA competition) ([1]; competitor 50 μM): 0.7
- SILAC ratio (AEA-DA competition) ([1]; competitor 100 μM): 0.6
- SILAC ratio, DCAKD (Q8BHC4) ([2]; competitor 25 μM): 1.4
- SILAC ratio, Dcakd ([2]; competitor 10 μM): 1.2
- SILAC ratio, Dcakd ([2]; competitor 25 μM): 1.4
- SILAC ratio, Dcakd ([2]; competitor 50 μM): 1.5
- SILAC ratio, Dcakd ([2]; competitor 100 μM): 1.9
- SILAC ratio, Ckap4 ([3]; competitor 10 μM): 1.3
- SILAC ratio, Ckap4 ([3]; competitor 25 μM): 1.4
- SILAC ratio, Ckap4 ([3]; competitor 50 μM): 1.3
- SILAC ratio, Ckap4 ([3]; competitor 100 μM): 1.8
- SILAC ratio, Atl2 ([4]; competitor 10 μM): 1.1
- SILAC ratio, Atl2 ([4]; competitor 25 μM): 1.4
- SILAC ratio, Atl2 ([4]; competitor 50 μM): 1.6
- SILAC ratio Timm50 ([5]; competitor 10 μM): 1.2
- SILAC ratio Timm50 ([5]; competitor 25 μM): 1.3
- SILAC ratio Timm50 ([5]; competitor 50 μM): 1.1
- SILAC ratio Timm50 ([5]; competitor 100 μM): 1.2
- SILAC ratio Mrpl46 ([6]; competitor 10 μM): 1.0
- SILAC ratio Mrpl46 ([6]; competitor 25 μM): 1.3
- SILAC ratio Mrpl46 ([6]; competitor 50 μM): 1.0
- SILAC ratio Mrpl46 ([6]; competitor 100 μM): 1.3
- SILAC ratio Slc25a1 ([7]; competitor 10 μM): 1.2
- SILAC ratio Slc25a1 ([7]; competitor 25 μM): 1.1
- SILAC ratio Slc25a1 ([7]; competitor 50 μM): 1.5
- SILAC ratio Slc25a1 ([7]; competitor 100 μM): 1.5
- SILAC ratio, Prkar1a ([8]; competitor 10 μM): 1.9
- SILAC ratio, Prkar1a ([8]; competitor 25 μM): 1.9
- SILAC ratio, Prkar1a ([8]; competitor 50 μM): 2.1
- SILAC ratio, Prkar1a ([8]; competitor 100 μM): 2.8
- SILAC ratio, Bnip1 ([9]; competitor 10 μM): 1.2
- SILAC ratio, Bnip1 ([9]; competitor 25 μM): 1.1
